What was measured:
Parameters in all cases: scale not given: the % may be the effect or the level left
[1] = molecular target: Death-associated protein kinase 2 (Homo sapiens) (UniProt Q9UIK4); test: Inhibition of human DAPK2 assessed as enzyme activity at 1 uM using KKLNRTLSFAEPG as substrate preincubated for 20 mins followed by [gamma-33P]-ATP addition and measured after 120 mins by radiometric Hot-SpotSM Kinase assay relative to control
[2] = molecular target: T1, Serine/threonine-protein kinase 4 (Homo sapiens) (UniProt Q13043); test: Inhibition of human MST1 assessed as enzyme activity at 1 uM using KKSRGDYMTMQIG as substrate preincubated for 20 mins followed by [gamma-33P]-ATP addition and measured after 120 mins by radiometric Hot-SpotSM Kinase assay relative to control
T1 sequence (whole entry): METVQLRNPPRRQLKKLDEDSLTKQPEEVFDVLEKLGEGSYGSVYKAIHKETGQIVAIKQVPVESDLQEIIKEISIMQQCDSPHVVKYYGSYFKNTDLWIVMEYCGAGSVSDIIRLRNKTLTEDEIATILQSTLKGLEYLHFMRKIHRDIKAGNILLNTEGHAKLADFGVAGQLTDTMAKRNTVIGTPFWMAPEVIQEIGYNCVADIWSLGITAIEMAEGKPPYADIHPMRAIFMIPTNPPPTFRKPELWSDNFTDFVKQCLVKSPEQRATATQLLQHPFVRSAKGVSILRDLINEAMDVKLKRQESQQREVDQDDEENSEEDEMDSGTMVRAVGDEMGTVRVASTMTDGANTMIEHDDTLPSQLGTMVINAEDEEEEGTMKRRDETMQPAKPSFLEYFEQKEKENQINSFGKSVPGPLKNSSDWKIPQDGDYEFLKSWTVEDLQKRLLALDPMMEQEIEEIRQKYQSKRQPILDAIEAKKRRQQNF

[3] = molecular target: Serine/threonine-protein kinase tousled-like 2 (Homo sapiens) (UniProt Q86UE8); test: Inhibition of human TLK2 assessed as enzyme activity at 1 uM using casein as substrate preincubated for 20 mins followed by [gamma-33P]-ATP addition and measured after 120 mins by radiometric Hot-SpotSM Kinase assay relative to control
Serine/threonine-protein kinase tousled-like 2 (Homo sapiens), sequence (Q86UE8 whole entry, looked up): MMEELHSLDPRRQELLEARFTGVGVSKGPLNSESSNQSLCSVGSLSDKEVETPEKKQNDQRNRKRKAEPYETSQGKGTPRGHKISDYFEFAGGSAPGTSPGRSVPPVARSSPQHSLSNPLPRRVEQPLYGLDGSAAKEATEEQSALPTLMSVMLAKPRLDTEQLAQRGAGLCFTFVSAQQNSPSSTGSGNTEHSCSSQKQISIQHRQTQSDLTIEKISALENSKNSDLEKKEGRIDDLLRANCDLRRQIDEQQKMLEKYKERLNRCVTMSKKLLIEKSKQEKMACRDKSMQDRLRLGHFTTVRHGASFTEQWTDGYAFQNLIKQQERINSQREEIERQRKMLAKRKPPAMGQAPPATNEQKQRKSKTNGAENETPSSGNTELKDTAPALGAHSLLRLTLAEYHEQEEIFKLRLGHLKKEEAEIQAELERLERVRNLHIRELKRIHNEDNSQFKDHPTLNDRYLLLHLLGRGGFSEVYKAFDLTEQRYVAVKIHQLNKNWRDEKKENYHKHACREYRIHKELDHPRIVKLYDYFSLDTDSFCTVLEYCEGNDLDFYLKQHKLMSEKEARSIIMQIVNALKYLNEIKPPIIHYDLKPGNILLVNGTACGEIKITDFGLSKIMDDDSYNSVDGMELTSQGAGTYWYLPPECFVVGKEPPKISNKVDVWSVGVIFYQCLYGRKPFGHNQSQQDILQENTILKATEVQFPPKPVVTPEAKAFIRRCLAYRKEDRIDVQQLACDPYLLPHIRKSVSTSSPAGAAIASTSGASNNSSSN

[4] = molecular target: T2, Muscle, skeletal receptor tyrosine-protein kinase (Homo sapiens) (UniProt O15146); test: Inhibition of human MUSK assessed as enzyme activity at 1 uM using myelin basic protein as substrate preincubated for 20 mins followed by [gamma-33P]-ATP addition and measured after 120 mins by radiometric Hot-SpotSM Kinase assay relative to control
T2 sequence (whole entry): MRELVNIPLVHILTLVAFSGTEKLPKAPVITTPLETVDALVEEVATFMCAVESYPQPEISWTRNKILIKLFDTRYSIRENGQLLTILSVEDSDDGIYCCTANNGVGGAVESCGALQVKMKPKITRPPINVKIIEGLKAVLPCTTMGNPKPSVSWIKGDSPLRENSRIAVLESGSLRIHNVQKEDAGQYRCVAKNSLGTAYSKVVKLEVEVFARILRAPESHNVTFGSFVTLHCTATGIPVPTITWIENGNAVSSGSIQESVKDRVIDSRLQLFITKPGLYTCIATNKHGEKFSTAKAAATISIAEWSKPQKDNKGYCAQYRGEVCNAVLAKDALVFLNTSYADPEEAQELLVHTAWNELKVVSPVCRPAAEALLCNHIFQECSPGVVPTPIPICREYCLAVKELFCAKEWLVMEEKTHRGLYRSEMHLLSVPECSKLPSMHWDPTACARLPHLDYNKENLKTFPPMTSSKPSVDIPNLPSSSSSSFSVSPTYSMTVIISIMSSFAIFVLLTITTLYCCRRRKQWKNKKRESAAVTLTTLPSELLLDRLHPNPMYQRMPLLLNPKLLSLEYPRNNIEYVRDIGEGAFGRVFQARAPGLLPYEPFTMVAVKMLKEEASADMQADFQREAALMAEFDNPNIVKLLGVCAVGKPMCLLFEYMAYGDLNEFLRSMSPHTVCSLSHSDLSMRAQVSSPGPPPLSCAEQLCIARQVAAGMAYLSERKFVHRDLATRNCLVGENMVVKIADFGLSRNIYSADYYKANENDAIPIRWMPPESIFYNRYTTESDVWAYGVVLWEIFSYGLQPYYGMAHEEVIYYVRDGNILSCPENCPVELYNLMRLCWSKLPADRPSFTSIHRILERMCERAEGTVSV

[5] = molecular target: T3, Serine/threonine-protein kinase D1 (Homo sapiens) (UniProt Q15139); test: Inhibition of human PKCmu assessed as enzyme activity at 1 uM using KKLNRTLSVA as substrate preincubated for 20 mins followed by [gamma-33P]-ATP addition and measured after 120 mins by radiometric Hot-SpotSM Kinase assay relative to control
T3 sequence (whole entry): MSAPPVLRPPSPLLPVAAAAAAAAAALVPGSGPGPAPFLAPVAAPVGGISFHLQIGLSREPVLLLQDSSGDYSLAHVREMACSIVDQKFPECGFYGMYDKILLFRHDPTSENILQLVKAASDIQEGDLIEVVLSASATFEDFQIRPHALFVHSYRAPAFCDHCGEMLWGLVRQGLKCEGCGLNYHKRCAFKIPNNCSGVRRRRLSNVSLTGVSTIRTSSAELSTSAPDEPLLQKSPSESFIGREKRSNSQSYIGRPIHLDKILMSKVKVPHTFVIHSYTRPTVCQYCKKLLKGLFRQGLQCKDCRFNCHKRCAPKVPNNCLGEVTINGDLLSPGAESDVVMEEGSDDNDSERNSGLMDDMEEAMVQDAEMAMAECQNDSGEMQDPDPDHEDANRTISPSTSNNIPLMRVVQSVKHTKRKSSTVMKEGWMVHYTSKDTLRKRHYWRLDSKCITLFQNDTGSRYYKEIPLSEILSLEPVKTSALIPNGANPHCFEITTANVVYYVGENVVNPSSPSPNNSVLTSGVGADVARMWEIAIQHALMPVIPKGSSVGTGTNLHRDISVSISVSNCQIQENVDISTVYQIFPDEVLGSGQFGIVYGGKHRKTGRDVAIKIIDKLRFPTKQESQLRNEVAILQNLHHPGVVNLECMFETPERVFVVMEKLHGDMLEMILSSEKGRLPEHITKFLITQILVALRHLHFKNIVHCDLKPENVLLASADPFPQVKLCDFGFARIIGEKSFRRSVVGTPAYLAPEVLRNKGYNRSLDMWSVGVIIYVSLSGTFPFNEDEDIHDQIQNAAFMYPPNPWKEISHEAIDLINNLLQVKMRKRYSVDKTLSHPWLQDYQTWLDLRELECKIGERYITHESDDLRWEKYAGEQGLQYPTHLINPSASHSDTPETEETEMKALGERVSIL

Death-associated protein kinase 2 (Homo sapiens), sequence (Q9UIK4 whole entry, looked up): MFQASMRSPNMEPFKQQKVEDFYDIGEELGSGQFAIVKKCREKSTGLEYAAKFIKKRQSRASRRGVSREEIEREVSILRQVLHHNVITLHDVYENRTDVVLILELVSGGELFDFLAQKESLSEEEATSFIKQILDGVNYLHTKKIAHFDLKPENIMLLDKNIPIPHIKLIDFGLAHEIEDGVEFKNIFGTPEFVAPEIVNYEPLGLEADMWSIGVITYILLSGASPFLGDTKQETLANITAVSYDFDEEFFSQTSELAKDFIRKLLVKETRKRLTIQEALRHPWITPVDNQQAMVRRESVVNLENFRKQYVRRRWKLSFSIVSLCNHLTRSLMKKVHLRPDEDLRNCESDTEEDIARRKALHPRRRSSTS

SMILES	Activity [1]	Activity [2]	Activity [3]	Activity [4]	Activity [5]
CC[C@H](Nc1ncnc2[nH]cnc12)c1nc2cccc(F)c2c(=O)n1-c1ccccc1	106%	89.8%	94%	94.4%	92.3%
C[C@H](Nc1ncnc2nc[nH]c12)c1cc2cccc(Cl)c2c(=O)n1-c1ccccc1	103%	94.1%	97.3%	95.8%	96.1%
CC(C)Oc1ccc(-c2nn([C@@H](C)c3oc4ccc(F)cc4c(=O)c3-c3cccc(F)c3)c3ncnc(N)c23)cc1F [UMBRALISIB]	97.9%	95.1%	96.3%	97.5%	92.7%

From ChEMBL document CHEMBL5715954, “Silencing c-Myc translation as a therapeutic strategy through targeting PI3Kδ and CK1ε in hematological malignancies” (Blood, 2017)
